Data published in patent US12655116B2, “Substituted isophthalic acid diamides” (Bayer Aktiengesellschaft, priority 2020, dated 2026).

Columns and labels:
ABUTH [1] = test: Pre-emergence herbicidal action against ABUTH; type: in vivo, Abutilon theophrasti
In short: (§1)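 Herbicidal effect was assessed 3 weeks after treatment by visual comparison with untreated controls, 100% denoting dead plants. Aqueous WP or EC preparations had been applied at 600 to 800 l/ha with 0.2% wetting agent to the soil covering freshly sown seeds.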

ALOMY [2] = test: Pre-emergence herbicidal action against ALOMY; type: in vivo, Alopecurus myosuroides; conditions: 80 g/ha, pre-emergence, scored visually after 3 weeks vs untreated controls (100% = plants have died, 0% = like control plants)
In short: as §1

AMARE [3] = test: Pre-emergence herbicidal action against AMARE; type: in vivo, Amaranthus retroflexus
In short: as §1

AVEFA = test: Pre-emergence herbicidal action against AVEFA; type: in vivo, Avena fatua; conditions: 80 g/ha, pre-emergence
In short: as §1

ECHCG [4] = test: Pre-emergence herbicidal action against ECHCG; type: in vivo, Echinochloa crus-galli; conditions: 80 g/ha
In short: as §1

MATIN [5] = test: Pre-emergence herbicidal action against MATIN; type: in vivo, Matricaria inodora
In short: as §1

PHBPU [6] = test: Pre-emergence herbicidal action against PHBPU; type: in vivo, Pharbitis purpurea; conditions: dosage 80 g/ha
In short: as §1

POLCO = test: Pre-emergence herbicidal action against POLCO; type: in vivo, Polygonum convolvulus; conditions: dosage 80 g/ha
In short: as §1

SETVI [7] = test: Pre-emergence herbicidal action against SETVI; type: in vivo, Setaria viridis; conditions: dosage 80 g/ha
In short: as §1

VERPE = test: Pre-emergence herbicidal action against VERPE; type: in vivo, Veronica persica; conditions: dosage 80 g/ha
In short: as §1

VIOTR = test: Pre-emergence herbicidal action against VIOTR; type: in vivo, Viola tricolor
In short: as §1

DIGSA [8] = test: Pre-emergence herbicidal action against DIGSA; type: in vivo, Digitaria sanguinalis
In short: as §1

ALOMY [9] = test: Post-emergence herbicidal action against ALOMY; type: in vivo, Alopecurus myosuroides; conditions: dosage 20 g/ha, visual assessment about 3 weeks after treatment vs untreated controls
In short: (§2)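 Post-emergence greenhouse test; one-leaf stage, 2–3 wk post-sowing, sandy loam. Foliar spray of WP/EC in water, 600–800 l/ha, +0.2% wetting agent. Visual % action at ~3 wk vs untreated (100% = plants dead).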

AMARE [10] = test: Post-emergence herbicidal action against AMARE; type: in vivo, Amaranthus retroflexus; conditions: 20 g/ha, visual assessment about 3 weeks after treatment, 100% = plants have died, 0% = like control plants
In short: as §2

ECHCG [11] = test: Post-emergence herbicidal action against ECHCG; type: in vivo, Echinochloa crus-galli
In short: as §2

MATIN [12] = test: Post-emergence herbicidal action against MATIN; type: in vivo, Matricaria inodora
In short: as §2

PHBPU [13] = test: Post-emergence herbicidal action against PHBPU; type: in vivo, Pharbitis purpurea
In short: as §2

SETVI [14] = test: Post-emergence herbicidal action against SETVI; type: in vivo, Setaria viridis
In short: as §2

DIGSA [15] = test: Post-emergence herbicidal action against DIGSA; type: in vivo, Digitaria sanguinalis
In short: as §2

ABUTH [16] = test: Post-emergence herbicidal action against ABUTH; type: in vivo, Abutilon theophrasti; conditions: visual assessment about 3 weeks after treatment vs untreated controls
In short: as §2

[17] = Tripleurospermum inodorum, 504 h, dosage 20 g/ha
[18] = 80 g/ha, scored visually after 3 weeks vs untreated controls (100% = plants have died, 0% = like control plants)

Cn1nnnc1NC(=O)c1ccc(C(F)F)c(C(=O)NCC(F)(F)F)c1Br [Example 1-229]
80%: pest or weed control at 80 g/ha (AVEFA; Avena fatua, 504 h) | pest or weed control at 80 g/ha (ECHCG [4]; Echinochloa crus-galli, 504 h) | pest or weed control at 80 g/ha (POLCO; Fallopia convolvulus, 504 h) | pest or weed control at 20 g/ha (ALOMY [9]; Alopecurus myosuroides, 504 h) | pest or weed control at 20 g/ha (MATIN [12]; [17]) | pest or weed control at 20 g/ha (PHBPU [13]; Ipomoea purpurea, 504 h, dosage 20 g/ha) | pest or weed control at 5 g/ha (SETVI [14]; Setaria viridis, 504 h, dosage 5 g/ha)
90%: pest or weed control at 20 g/ha (ABUTH [1]; Abutilon theophrasti, 504 h, dosage 20 g/ha, scored visually after 3 weeks vs untreated controls, 100% = plants have died, 0% = like control plants, read-out: Pre-emergence action against ABUTH (herbicidal activity in percent)) | pest or weed control at 80 g/ha (ALOMY [2]; Alopecurus myosuroides, 504 h) | pest or weed control at 80 g/ha (PHBPU [6]; Ipomoea purpurea, 504 h) | pest or weed control at 20 g/ha (AMARE [10]; Amaranthus retroflexus, 504 h) | pest or weed control at 5 g/ha (ECHCG [11]; Echinochloa crus-galli, 504 h, dosage 5 g/ha) | pest or weed control at 20 g/ha (ECHCG [11]; Echinochloa crus-galli, 504 h, dosage 20 g/ha) | pest or weed control at 20 g/ha (SETVI [14]; Setaria viridis, 504 h, dosage 20 g/ha) | pest or weed control at 5 g/ha (DIGSA [15]; Digitaria sanguinalis, 504 h, 5 g/ha) | pest or weed control at 20 g/ha (DIGSA [15]; Digitaria sanguinalis, 504 h, 20 g/ha)
100%: pest or weed control at 80 g/ha (ABUTH [1]; Abutilon theophrasti, 504 h, 80 g/ha, scored visually after 3 weeks vs untreated controls (100% = plants have died, 0% = like control plants)) | pest or weed control at 20 g/ha (AMARE [3]; Amaranthus retroflexus, 504 h, 20 g/ha, scored visually after 3 weeks vs untreated controls, 100% = plants have died, 0% = like control plants) | pest or weed control at 80 g/ha (AMARE [3]; Amaranthus retroflexus, 504 h, 80 g/ha, scored visually after 3 weeks vs untreated controls, 100% = plants have died, 0% = like control plants) | pest or weed control at 20 g/ha (MATIN [5]; [17]) | pest or weed control at 80 g/ha (MATIN [5]; Tripleurospermum inodorum, 504 h, dosage 80 g/ha) | pest or weed control at 80 g/ha (SETVI [7]; Setaria viridis, 504 h) | pest or weed control at 80 g/ha (VERPE; Veronica persica, 504 h) | pest or weed control at 80 g/ha (VIOTR; Viola tricolor, 504 h, dosage 80 g/ha) | pest or weed control at 20 g/ha (DIGSA [8]; Digitaria sanguinalis, 504 h, dosage 20 g/ha) | pest or weed control at 80 g/ha (DIGSA [8]; Digitaria sanguinalis, 504 h, dosage 80 g/ha)

CCn1nnnc1NC(=O)c1ccc(C(F)F)c(C(=O)NCC(F)F)c1C [Example 2-49]
80%: Pre-emergence action against AVEFA in % (AVEFA) | Pre-emergence action against PHBPU in % (PHBPU [6]) | Post-emergence action against ALOMY in % (ALOMY [9]) | Post-emergence action against MATIN in % (MATIN [12]; dosage 5 g/ha) | Post-emergence action against MATIN in % (MATIN [12]; dosage 20 g/ha) | Post-emergence action against PHBPU in % (PHBPU [13]; dosage 5 g/ha)
100%: Pre-emergence action against ABUTH (herbicidal activity) (ABUTH [1]; [18]) | Pre-emergence action against ABUTH (herbicidal activity in percent) (ABUTH [1]; dosage 20 g/ha, scored visually after 3 weeks vs untreated controls, 100% = plants have died, 0% = like control plants) | Pre-emergence action against AMARE in % (AMARE [3]; 20 g/ha, scored visually after 3 weeks vs untreated controls, 100% = plants have died, 0% = like control plants) | Pre-emergence action against AMARE in % (AMARE [3]; [18]) | Pre-emergence action against MATIN in % (MATIN [5]; dosage 20 g/ha) | Pre-emergence action against MATIN in % (MATIN [5]; dosage 80 g/ha) | Pre-emergence action against SETVI in % (SETVI [7]) | Pre-emergence action against VERPE in % (VERPE) | Pre-emergence action against VIOTR in % (VIOTR; dosage 80 g/ha) | Pre-emergence action against DIGSA in % (DIGSA [8]; dosage 20 g/ha) | Pre-emergence action against DIGSA in % (DIGSA [8]; dosage 80 g/ha) | Post-emergence action at 20 g/ha against AMARE in % (AMARE [10])
90%: Pre-emergence action against ALOMY (herbicidal activity) (ALOMY [2]) | Pre-emergence action against ECHCG in % (ECHCG [4]) | Pre-emergence action against POLCO in % (POLCO) | Pre-emergence action against VIOTR in % (VIOTR; dosage 20 g/ha) | Post-emergence action against ABUTH in % (ABUTH [16]; dosage 5 g/ha) | Post-emergence action against ABUTH in % (ABUTH [16]; dosage 20 g/ha) | Post-emergence action against ECHCG in % (ECHCG [11]; dosage 20 g/ha) | Post-emergence action against PHBPU in % (PHBPU [13]; dosage 20 g/ha) | Post-emergence action against SETVI in % (SETVI [14]; dosage 20 g/ha) | Post-emergence action against DIGSA in % (DIGSA [15]; 5 g/ha) | Post-emergence action against DIGSA (DIGSA [15]; 20 g/ha)
